What is called IC50 is the concentration at which inhibition is half-maximal. Higher therefore signals weaker potency in that assay.

The first assay deals with Substance-P receptor (Rattus norvegicus, UniProt P14600). As to the kind of experiment: Binding affinity for tachykinin receptor 1 from rat forebrain tissue, [125I]-BH-SP as radioligand.
Chain of Substance-P receptor (P14600 whole entry): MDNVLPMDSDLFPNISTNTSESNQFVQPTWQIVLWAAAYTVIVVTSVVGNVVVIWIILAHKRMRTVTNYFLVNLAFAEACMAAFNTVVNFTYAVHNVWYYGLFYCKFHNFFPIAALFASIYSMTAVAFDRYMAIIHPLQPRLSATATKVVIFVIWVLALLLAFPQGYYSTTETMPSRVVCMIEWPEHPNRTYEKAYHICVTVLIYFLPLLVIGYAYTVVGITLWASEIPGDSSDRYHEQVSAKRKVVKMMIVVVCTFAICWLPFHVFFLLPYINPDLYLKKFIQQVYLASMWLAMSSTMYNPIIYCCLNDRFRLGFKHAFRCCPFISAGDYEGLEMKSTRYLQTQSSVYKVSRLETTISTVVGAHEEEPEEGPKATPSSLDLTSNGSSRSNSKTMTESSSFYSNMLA
On to `CCn1c(/C=C/C=C2\Sc3ccccc3N2C)[n+](CC)c2nc3ccccc3nc21`, for which the IC50 was 700 nM.

With `CCOC(=O)CCC[n+]1c(/C=C/C=C2/N(C)c3ccccc3C2(C)C)n(CC)c2nc3ccccc3nc21`, the IC50 turned out to be 850 nM.

On to `CCn1c(/C=C/C=C/N2CCCC2)[n+](CC)c2nc3ccccc3nc21`, for which the IC50 was greater than 10000 nM.

Regarding `CCn1c(/C=C/C=C2/N(C)c3ccccc3C2(C)C)[n+](CCCO)c2nc3ccccc3nc21`, the IC50 was found to be 350 nM.

As to `CCn1c(/C=C/C=C2/N(C)c3ccccc3C2(C)C)[n+](CC)c2nc3cc(Cl)c(Cl)cc3nc21`, the IC50 is 1100 nM.

Compound `CCn1c(/C=C/C=C2/N(C)c3ccccc3C2(C)C)[n+](CCCC(=O)O)c2nc3ccccc3nc21` yielded an IC50 of 1400 nM.

Take `CCn1c(/C=C/C=C2/N(C)c3ccccc3C2(C)C)[n+](CCCOC(C)=O)c2nc3ccccc3nc21`: the IC50 turned out to be 410 nM.

In turn, `CCn1c(/C=C/C=C2/N(C)c3ccccc3C2(C)C)[n+](CCCN(C)C)c2nc3ccccc3nc21` showed an IC50 of 1300 nM.

Turning to `CCn1c(/C=C/C=C2/N(C)c3ccccc3C2(C)C)[n+](CC(N)=O)c2nc3ccccc3nc21`, the IC50 came to 2000 nM.

`CCN1/C(=C/C=C/c2n(CC)c3nc4ccccc4nc3[n+]2CC)C(C)(C)c2ccccc21` came in with an IC50 of 390 nM.

As for `CCn1c(/C=C/C=C2/N(CCO)c3ccccc3C2(C)C)[n+](CC)c2nc3ccccc3nc21`, the IC50 was determined as 1000 nM.

`CCn1c(/C=C/C=C2\C3C=CCc4cccc(c43)N2C)[n+](CC)c2nc3ccccc3nc21` (stereo not given) yielded an IC50 of 850 nM.

Turning to `CCn1c(/C=C/C=C2/N(CC(=O)N(C)C)c3ccccc3C2(C)C)[n+](CC)c2nc3ccccc3nc21`, the IC50 was found to be 2600 nM.

The target of another assay is T1, Substance-K receptor (Rattus norvegicus, UniProt P16610).
T1 sequence (P16610 whole entry): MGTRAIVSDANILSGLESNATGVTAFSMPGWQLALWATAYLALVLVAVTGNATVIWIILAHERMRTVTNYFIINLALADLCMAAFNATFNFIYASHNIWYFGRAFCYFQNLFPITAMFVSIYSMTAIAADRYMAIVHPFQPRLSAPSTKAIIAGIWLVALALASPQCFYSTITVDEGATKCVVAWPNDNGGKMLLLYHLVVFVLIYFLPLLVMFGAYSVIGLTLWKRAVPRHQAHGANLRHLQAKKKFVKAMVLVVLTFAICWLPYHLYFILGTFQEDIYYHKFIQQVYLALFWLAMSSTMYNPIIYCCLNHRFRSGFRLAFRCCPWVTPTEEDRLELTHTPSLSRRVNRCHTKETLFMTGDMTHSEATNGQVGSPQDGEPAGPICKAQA
In words: Binding affinity of compound was evaluated towards tachykinin receptor 2 by using radioligand ([125I]-NKA in rat duodenum.
For the compound `CCn1c(/C=C/C=C2\N(C)c3ccccc3C2(C)C)[n+](CC)c2nc3ccccc3nc21`, the IC50 worked out at 1700 nM.

Another assay addresses T2, Neuromedin-K receptor (Rattus norvegicus, UniProt P16177).
T2 sequence (P16177 whole entry): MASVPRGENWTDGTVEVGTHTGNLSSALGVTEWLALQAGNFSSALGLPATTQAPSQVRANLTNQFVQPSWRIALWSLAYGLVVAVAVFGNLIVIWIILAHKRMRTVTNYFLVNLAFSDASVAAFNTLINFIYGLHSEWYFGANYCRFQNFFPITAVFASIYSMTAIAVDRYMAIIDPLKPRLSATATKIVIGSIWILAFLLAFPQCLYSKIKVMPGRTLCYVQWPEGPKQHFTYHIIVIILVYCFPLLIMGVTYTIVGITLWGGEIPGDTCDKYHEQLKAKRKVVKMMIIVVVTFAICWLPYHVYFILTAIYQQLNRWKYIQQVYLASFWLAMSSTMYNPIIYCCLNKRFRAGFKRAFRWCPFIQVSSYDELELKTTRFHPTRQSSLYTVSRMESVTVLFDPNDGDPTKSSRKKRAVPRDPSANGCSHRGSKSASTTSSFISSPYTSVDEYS
As to the kind of experiment: Binding affinity of compound was evaluated towards tachykinin receptor 3 by using radioligand [[…]]eledoisin in rat cortex.
Turning to `CCn1c(/C=C/C=C2\N(C)c3ccccc3C2(C)C)[n+](CC)c2nc3ccccc3nc21`, the IC50 was determined as 3300 nM.

The values above are taken from ChEMBL document CHEMBL1125705, “Imidazo[4,5-b]quinoxaline cyanines as neurokinin antagonists” (J Med Chem, 1991).
